Test system: subjects with vitiligo (depigmented areas on neck, trunk and extremities)
Assay: Efficacy and safety study in vitiligo, blinded investigator evaluation on a score of 0 to 7
Type: in vivo
Conditions: share of the subjects in the group; after the 20 week topical treatment regimen was completed; nonfacial areas
Protocol: An efficacy and safety study was conducted to compare the effects of bimatoprost monotherapy, mometasone monotherapy, and the combination of bimatoprost and mometasone. 18 randomized subjects completed the 20 week study, five coming in each of the bimatoprost monotherapy and mometasone monotherapy groups with the other eight coming in the bimatoprost/mometasone combination group. Subjects with vitiligo applied the corresponding drug(s) to depigmented areas on their neck, truck, and extremities. Per FDA request, facial areas where not treated during the study. For the bimatoprost monotherapy group, subjects were instructed to administer bimatoprost twice daily (morning and evening) for all 20 weeks. For the mometasone monotherapy group, subjects were instructed to administer mometasone once daily in the morning for weeks 1-12 and 17-20. Placebo (Cetaphil) was instructed to be administered in the morning for weeks 13-16 and in the evening for all 20 weeks. For the bimatoprost/mometasone combination group, subjects were instructed to administer mometasone once daily in the morning for weeks 1-12 and 17-20 and placebo was administered in the morning for weeks 13-16. Subjects were instructed to administer bimatoprost once daily evening for all 20 weeks. Subjects in either the bimatoprost monotherapy group or the bimatoprost/mometasone combination group the subjects were instructed to administer bimatoprost in the form of a 0.03 wt. % solution which was to be applied in a dose of 1 to 2 drops per 2 cm^2 body surface area. Subjects in either the mometasone monotherapy group or the bimatoprost/mometasone combination group the subjects were instructed to administer mometasone in the form of 0.1 wt. % mometasone furoate cream which was to be applied in a dose of 1 to 2 pea-sized quantities per anatomic area. The subjects were blind as to which group they were in and therefore which drug(s) they were administering. During the study period, the subjects were periodically evaluated by an investigator. The investigators evaluated the subjects on a score of 0 to 7 with 0 meaning that the subject's condition was worse, 1 being unchanged, 2 being slight improvement (approximately 10% improvement), 3 being mild improvement (approximately 10 to 25% improvement), 4 being moderate improvement (approximately 25 to 50% improvement), 5 being marked improvement (approximately 50 to 75% improvement), 6 being almost cleared (approximately 75 to 99% improvement), 7 being cleared (100% improvement). Like the subjects, the investigators were blind as to which group the subjects they were evaluating were in and therefore which drug(s) they were evaluating were administering.

Row | SMILES | subjects with mild improvement (score 3, approximately 10 to 25% improvement) [%] | subjects with slight improvement (score 2, approximately 10% improvement) [%] | subjects with moderate improvement (score 4, approximately 25 to 50% improvement) [%]
1 | C[C@@H]1C[C@H]2[C@@H]3CCC4=CC(=O)C=C[C@]4(C)[C@@]3(Cl)[C@@H](O)C[C@]2(C)[C@@]1(OC(=O)c1ccco1)C(=O)CCl [mometasone, mometasone furoate] | 40 | 60 | –
2 | CCNC(=O)CCC/C=C\C[C@@H]1[C@@H](/C=C/[C@@H](O)CCc2ccccc2)[C@H](O)C[C@@H]1O [bimatoprost, Bimatoprost] | 60 | – | 40

Reference: patent publication US20180200263A1, “TOPICAL TREATMENT REGIMENS CONTAINING A PROSTAGLANDIN F2a ANALOG AND A TOPICAL STEROID” (priority 2015, published 2018)
